# Test results as given in patent publication US20250262167A1, “COMPOUNDS, TARGETS AND PATHWAYS FOR MACROPHAGE MODULATION” (Massachusetts Institute of Technology, priority 2020, published 2025).
# Read-outs that look alike come from different tables or passages of the source.
# What was measured:
# [1] = test system: PKM2; assay: PKM enzymatic activity (colorimetric kit) in treated ImKCs; type: cell-based, mouse; conditions: parental ImKCs, 50 nM, β-arrestin2-dependent
# Experimental: Data are presented as the mean±sd (n=4). […] Data are presented as the mean±sd (n=6).
# FIGS. 29A-29B show comparison of DPI's effect on glycolysis in wild-type and Pkm^−/− BMDMs. […] FIGS. 29C-29D show activation of PKM2 and GAPDH enzymatic activity by DPI is inhibited by ERK1/2 inhibitor. ImKCs were treated with DMSO or DPI alone (500 nM) or DPI plus ERK1/2 inhibitor (SCH772984, […]) for 6 hrs and the enzymatic activities of PKM2 (c) and GAPDH (d) were measured by colorimetric assay kits (Biovision). Data are presented as the mean±sd (n=6).
# The enzymatic activities of PKM and GAPDH were measured using the pyruvate kinase activity assay kit (Biovision, #K709) and GAPDH activity assay kit (Biovision, #K680) according to the manufacturer's protocols, respectively.
compound,measurement,setting,value
c1ccc2c(c1)[I+]c1ccccc1-2 [Diphenyleneiodonium chloride],PKM2 enzymatic activity,[1],immediate increase
same,blood glucose,15 and 30 min after glucose injection,significantly lower levels
same,blood glucose,6 hours after DPI 2 mg/kg i.p.,significantly lower level
